Experimental data published in PMC7156458, “Synthetic biology based construction of biological activity-related library of fungal decalin-containing diterpenoid pyrones” (Nature Communications, 2020).

Target: Aβ42 (Homo sapiens, UniProt P05067)
Test: Th-T (thioflavin-T) assay of Aβ42 aggregation
Assay type: biochemical
Details: for Th-T assay plate reading, mean of three wells (Supplementary Fig. 47): source data, Ab alone and No Ab as controls

Chain of Aβ42 (P05067 672-713): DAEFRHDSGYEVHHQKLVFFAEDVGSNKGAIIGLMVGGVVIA

With `C=C1CC[C@H]2[C@]3(C)C[C@H](C=C(C)C)O[C@H]3CC[C@]2(C)[C@@H]1Cc1c(OC)oc(C)c(C)c1=O` [Compound 24] the “Th-T fluorescence, mean of three wells” value (Aβ42 aggregation time course, reading M117) was 3.93, the “Th-T fluorescence, mean of three wells” value (Aβ42 aggregation time course, reading M118) was 3.9367 and the “Th-T fluorescence, mean of three wells” value (Aβ42 aggregation time course, reading M119) was 3.915. The “Th-T fluorescence, mean of three wells” value (Aβ42 aggregation time course, reading M120) was 3.905, the “Th-T fluorescence, mean of three wells” value (Aβ42 aggregation time course, reading M121) was 3.903 and the “Th-T fluorescence, mean of three wells” value (Aβ42 aggregation time course, reading M122) was 3.899. For the same compound, the “Th-T fluorescence, mean of three wells” value (Aβ42 aggregation time course, reading M123) was 3.9273, the “Th-T fluorescence, mean of three wells” value (Aβ42 aggregation time course, reading M124) was 3.899 and the “Th-T fluorescence, mean of three wells” value (Aβ42 aggregation time course, reading M125) was 3.909. The “Th-T fluorescence, mean of three wells” value (Aβ42 aggregation time course, reading M126) was 3.889, the “Th-T fluorescence, mean of three wells” value (Aβ42 aggregation time course, reading M127) was 3.86 and the “Th-T fluorescence, mean of three wells” value (Aβ42 aggregation time course, reading M128) was 3.875. For the same compound, the “Th-T fluorescence, mean of three wells” value (Aβ42 aggregation time course, reading M129) was 3.876, the “Th-T fluorescence, mean of three wells” value (Aβ42 aggregation time course, reading M130) was 3.844 and the “Th-T fluorescence, mean of three wells” value (Aβ42 aggregation time course, reading M131) was 3.869. The “Th-T fluorescence, mean of three wells” value (Aβ42 aggregation time course, reading M132) was 3.865, the “Th-T fluorescence, mean of three wells” value (Aβ42 aggregation time course, reading M133) was 3.8524 and the “Th-T fluorescence, mean of three wells” value (Aβ42 aggregation time course, reading M134) was 3.8749. The “Th-T fluorescence, mean of three wells” value (Aβ42 aggregation time course, reading M135) was 3.85, the “Th-T fluorescence, mean of three wells” value (Aβ42 aggregation time course, reading M136) was 3.855 and the “Th-T fluorescence, mean of three wells” value (Supplementary Fig. 47, reading M137) was 3.87. For the same compound, the “Th-T fluorescence, mean of three wells” value (Supplementary Fig. 47, reading M138) was 3.855, the “Th-T fluorescence, mean of three wells” value (Supplementary Fig. 47, reading M139) was 3.871 and the “Th-T fluorescence, mean of three wells” value (Supplementary Fig. 47, reading M140) was 3.832. The “Th-T fluorescence, mean of three wells” value (Supplementary Fig. 47, reading M141) was 3.853, the “Th-T fluorescence, mean of three wells” value (Supplementary Fig. 47, reading M142) was 3.823 and the “Th-T fluorescence, mean of three wells” value (Supplementary Fig. 47, reading M143) was 3.843. For the same compound, the “Th-T fluorescence, mean of three wells” value (Supplementary Fig. 47, reading M144) was 3.8288, the “Th-T fluorescence, mean of three wells” value (Supplementary Fig. 47, reading M145) was 3.794 and the “Th-T fluorescence, mean of three wells” value (Supplementary Fig. 47 source data, measurement M37 of time course) was 4.118. The “Th-T fluorescence, mean of three wells” value (Supplementary Fig. 47 source data, measurement M38 of time course) was 4.1, the “Th-T fluorescence, mean of three wells” value (Supplementary Fig. 47 source data, measurement M39 of time course) was 4.133 and the “Th-T fluorescence, mean of three wells” value (Supplementary Fig. 47 source data, measurement M40 of time course) was 4.141. For the same compound, the “Th-T fluorescence, mean of three wells” value (Supplementary Fig. 47 source data, measurement M41 of time course) was 4.132, the “Th-T fluorescence, mean of three wells” value (Supplementary Fig. 47 source data, measurement M42 of time course) was 4.118 and the “Th-T fluorescence, mean of three wells” value (Supplementary Fig. 47 source data, measurement M43 of time course) was 4.101. The “Th-T fluorescence, mean of three wells” value (Supplementary Fig. 47 source data, measurement M44 of time course) was 4.12, the “Th-T fluorescence, mean of three wells” value (Supplementary Fig. 47 source data, measurement M45 of time course) was 4.146 and the “Th-T fluorescence, mean of three wells” value (Supplementary Fig. 47 source data, measurement M46 of time course) was 4.159. For the same compound, the “Th-T fluorescence, mean of three wells” value (Supplementary Fig. 47 source data, measurement M47 of time course) was 4.139, the “Th-T fluorescence, mean of three wells” value (Supplementary Fig. 47 source data, measurement M48 of time course) was 4.146 and the “Th-T fluorescence, mean of three wells” value (Supplementary Fig. 47 source data, measurement M49 of time course) was 4.116. For the same compound, the “Th-T fluorescence, mean of three wells” value (Supplementary Fig. 47 source data, measurement M50 of time course) was 4.153, the “Th-T fluorescence, mean of three wells” value (Supplementary Fig. 47 source data, measurement M51 of time course) was 4.157 and the “Th-T fluorescence, mean of three wells” value (Supplementary Fig. 47 source data, measurement M52 of time course) was 4.123. For the same compound, the “Th-T fluorescence, mean of three wells” value (Supplementary Fig. 47 source data, measurement M53 of time course) was 4.133, the “Th-T fluorescence, mean of three wells” value (Supplementary Fig. 47 source data, measurement M54 of time course) was 4.156 and the “Th-T fluorescence, mean of three wells” value (Supplementary Fig. 47 source data, measurement M55 of time course) was 4.1334. For the same compound, the “Th-T fluorescence, mean of three wells” value (Supplementary Fig. 47 source data, measurement M56 of time course) was 4.113, the “Th-T assay plate reading, mean of three wells (Supplementary Fig. 47)” value (“Th-T assay plate reading, mean” for short) (measurement M1) was 0.168 and the “Th-T assay plate reading, mean” value (measurement M2) was 0.1686. For the same compound, the “Th-T assay plate reading, mean” value (measurement M3) was 0.1808, the “Th-T assay plate reading, mean” value (measurement M4) was 0.1943 and the “Th-T assay plate reading, mean” value (measurement M5) was 0.213. For the same compound, the “Th-T assay plate reading, mean” value (measurement M6) was 0.2405, the “Th-T assay plate reading, mean” value (measurement M7) was 0.3234 and the “Th-T assay plate reading, mean” value (measurement M8) was 0.379. The “Th-T assay plate reading, mean” value (measurement M9) was 0.4389, the “Th-T assay plate reading, mean” value (measurement M10) was 0.7586 and the “Th-T assay plate reading, mean” value (measurement M11) was 1.544. The “Th-T assay plate reading, mean” value (measurement M12) was 2.364, the “Th-T assay plate reading, mean” value (measurement M13) was 2.959 and the “Th-T assay plate reading, mean” value (measurement M14) was 3.254. The “Th-T assay plate reading, mean” value (measurement M15) was 3.396, the “Th-T assay plate reading, mean” value (measurement M16) was 3.5133 and the “Th-T fluorescence, mean of three wells” value (reading M17, Supplementary Fig. 47 source data) was 3.637. For the same compound, the “Th-T fluorescence, mean of three wells” value (reading M18, Supplementary Fig. 47 source data) was 3.688, the “Th-T fluorescence, mean of three wells” value (reading M19, Supplementary Fig. 47 source data) was 3.715 and the “Th-T fluorescence, mean of three wells” value (reading M20, Supplementary Fig. 47 source data) was 3.759. For the same compound, the “Th-T fluorescence, mean of three wells” value (reading M21, Supplementary Fig. 47 source data) was 3.811, the “Th-T fluorescence, mean of three wells” value (reading M22, Supplementary Fig. 47 source data) was 3.836 and the “Th-T fluorescence, mean of three wells” value (reading M23, Supplementary Fig. 47 source data) was 3.884. For the same compound, the “Th-T fluorescence, mean of three wells” value (reading M24, Supplementary Fig. 47 source data) was 3.963, the “Th-T fluorescence, mean of three wells” value (reading M25, Supplementary Fig. 47 source data) was 3.926 and the “Th-T fluorescence, mean of three wells” value (reading M26, Supplementary Fig. 47 source data) was 3.978. The “Th-T fluorescence, mean of three wells” value (reading M27, Supplementary Fig. 47 source data) was 3.957, the “Th-T fluorescence, mean of three wells” value (reading M28, Supplementary Fig. 47 source data) was 4.012 and the “Th-T fluorescence, mean of three wells” value (reading M29, Supplementary Fig. 47 source data) was 4.002. For the same compound, the “Th-T fluorescence, mean of three wells” value (reading M30, Supplementary Fig. 47 source data) was 4.039, the “Th-T fluorescence, mean of three wells” value (reading M31, Supplementary Fig. 47 source data) was 4.06 and the “Th-T fluorescence, mean of three wells” value (reading M32, Supplementary Fig. 47 source data) was 4.053. For the same compound, the “Th-T fluorescence, mean of three wells” value (reading M33, Supplementary Fig. 47 source data) was 4.071, the “Th-T fluorescence, mean of three wells” value (reading M34, Supplementary Fig. 47 source data) was 4.107 and the “Th-T fluorescence, mean of three wells” value (reading M35, Supplementary Fig. 47 source data) was 4.086. The “Th-T fluorescence, mean of three wells” value (reading M36, Supplementary Fig. 47 source data) was 4.108, the “Th-T fluorescence, mean of three wells” value (time course, reading M57) was 4.13 and the “Th-T fluorescence, mean of three wells” value (time course, reading M58) was 4.119. For the same compound, the “Th-T fluorescence, mean of three wells” value (time course, reading M59) was 4.1173, the “Th-T fluorescence, mean of three wells” value (time course, reading M60) was 4.127 and the “Th-T fluorescence, mean of three wells” value (time course, reading M61) was 4.118. The “Th-T fluorescence, mean of three wells” value (time course, reading M62) was 4.092, the “Th-T fluorescence, mean of three wells” value (time course, reading M63) was 4.112 and the “Th-T fluorescence, mean of three wells” value (time course, reading M64) was 4.119. The “Th-T fluorescence, mean of three wells” value (time course, reading M65) was 4.128, the “Th-T fluorescence, mean of three wells” value (time course, reading M66) was 4.121 and the “Th-T fluorescence, mean of three wells” value (time course, reading M67) was 4.11. The “Th-T fluorescence, mean of three wells” value (time-course reading M97, Supplementary Fig. 47 source data) was 3.985, the “Th-T fluorescence, mean of three wells” value (time-course reading M98, Supplementary Fig. 47 source data) was 4.028 and the “Th-T fluorescence, mean of three wells” value (time-course reading M99, Supplementary Fig. 47 source data) was 3.988. For the same compound, the “Th-T fluorescence, mean of three wells” value (time-course reading M100, Supplementary Fig. 47 source data) was 4.004, the “Th-T fluorescence, mean of three wells” value (time-course reading M101, Supplementary Fig. 47 source data) was 3.9991 and the “Th-T fluorescence, mean of three wells” value (time-course reading M102, Supplementary Fig. 47 source data) was 3.997. The “Th-T fluorescence, mean of three wells” value (time-course reading M103, Supplementary Fig. 47 source data) was 3.988, the “Th-T fluorescence, mean of three wells” value (time-course reading M104, Supplementary Fig. 47 source data) was 3.979 and the “Th-T fluorescence, mean of three wells” value (time-course reading M105, Supplementary Fig. 47 source data) was 4.002. For the same compound, the “Th-T fluorescence, mean of three wells” value (time-course reading M106, Supplementary Fig. 47 source data) was 3.966, the “Th-T fluorescence, mean of three wells” value (time-course reading M107, Supplementary Fig. 47 source data) was 3.935 and the “Th-T fluorescence, mean of three wells” value (time-course reading M108, Supplementary Fig. 47 source data) was 3.958. For the same compound, the “Th-T fluorescence, mean of three wells” value (time-course reading M109, Supplementary Fig. 47 source data) was 3.936, the “Th-T fluorescence, mean of three wells” value (time-course reading M110, Supplementary Fig. 47 source data) was 3.951 and the “Th-T fluorescence, mean of three wells” value (time-course reading M111, Supplementary Fig. 47 source data) was 3.932. For the same compound, the “Th-T fluorescence, mean of three wells” value (time-course reading M112, Supplementary Fig. 47 source data) was 3.941, the “Th-T fluorescence, mean of three wells” value (time-course reading M113, Supplementary Fig. 47 source data) was 3.942 and the “Th-T fluorescence, mean of three wells” value (time-course reading M114, Supplementary Fig. 47 source data) was 3.927. For the same compound, the “Th-T fluorescence, mean of three wells” value (time-course reading M115, Supplementary Fig. 47 source data) was 3.938 and the “Th-T fluorescence, mean of three wells” value (time-course reading M116, Supplementary Fig. 47 source data) was 3.922.
